Measured values taken from patent US7300950B2, “Pyrazole derivatives, their preparation and their use in pharmaceuticals” (Aventis Pharma Deutschland GmbH, priority 1997, dated 2007).

Legend:
[1] = target: T1, soluble guanylate cyclase (sGC) isolated from bovine lung (Bos taurus, UniProt P16068+P19687); assay: Activation of the soluble guanylate cyclase (cGMP enzyme immunoassay); type: biochemical; settings: n-fold stimulation of basal enzyme activity = [cGMP]test substance/[cGMP]control
T1 construct: The sGC which was employed had been isolated from bovine lung; from tissue; host or cells: bovine lung
T1 sequence (P16068 1-619): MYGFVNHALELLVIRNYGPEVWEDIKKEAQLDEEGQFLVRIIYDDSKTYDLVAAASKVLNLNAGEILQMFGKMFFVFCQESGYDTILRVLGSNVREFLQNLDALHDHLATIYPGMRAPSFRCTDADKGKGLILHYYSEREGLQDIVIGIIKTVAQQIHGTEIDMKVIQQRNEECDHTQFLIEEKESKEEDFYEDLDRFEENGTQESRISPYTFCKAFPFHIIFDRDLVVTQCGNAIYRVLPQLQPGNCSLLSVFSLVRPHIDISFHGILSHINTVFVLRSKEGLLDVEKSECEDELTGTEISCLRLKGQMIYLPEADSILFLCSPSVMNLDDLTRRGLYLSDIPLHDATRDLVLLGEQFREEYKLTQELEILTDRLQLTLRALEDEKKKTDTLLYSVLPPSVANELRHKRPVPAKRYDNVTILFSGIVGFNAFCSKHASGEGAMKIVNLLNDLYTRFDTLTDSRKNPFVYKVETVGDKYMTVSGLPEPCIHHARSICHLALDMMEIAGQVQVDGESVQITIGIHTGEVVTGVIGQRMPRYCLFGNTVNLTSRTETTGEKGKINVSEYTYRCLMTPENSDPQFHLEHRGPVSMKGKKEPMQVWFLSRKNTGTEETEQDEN
T1 sequence (P19687 1-691): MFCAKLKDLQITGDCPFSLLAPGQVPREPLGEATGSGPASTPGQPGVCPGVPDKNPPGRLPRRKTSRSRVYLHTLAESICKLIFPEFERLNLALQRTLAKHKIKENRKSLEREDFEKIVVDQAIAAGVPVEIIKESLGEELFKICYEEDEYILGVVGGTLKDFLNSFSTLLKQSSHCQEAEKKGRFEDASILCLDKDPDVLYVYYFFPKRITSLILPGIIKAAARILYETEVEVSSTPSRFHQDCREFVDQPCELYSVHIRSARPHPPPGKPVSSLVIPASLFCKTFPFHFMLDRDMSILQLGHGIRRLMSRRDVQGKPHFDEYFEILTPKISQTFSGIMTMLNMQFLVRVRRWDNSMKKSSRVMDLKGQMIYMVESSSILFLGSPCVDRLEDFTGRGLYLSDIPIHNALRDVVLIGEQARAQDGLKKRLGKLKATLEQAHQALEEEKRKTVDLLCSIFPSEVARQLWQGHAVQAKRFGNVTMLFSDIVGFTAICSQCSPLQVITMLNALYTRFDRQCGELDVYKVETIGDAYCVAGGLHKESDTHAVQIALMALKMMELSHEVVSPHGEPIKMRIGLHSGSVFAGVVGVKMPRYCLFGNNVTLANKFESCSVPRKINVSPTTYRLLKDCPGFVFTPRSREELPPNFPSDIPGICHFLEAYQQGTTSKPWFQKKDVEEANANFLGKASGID
Method: 1. Activation of the Soluble Guanylate Cyclase
The activation of the sGC, which catalyzes the conversion of GTP into cyclic guanosine monophosphate cGMP and pyrophosphate, by the compounds according to the invention was quantified with the aid of an enzyme immunoassay “EIA” from Amersham. For this purpose the substances to be tested were initially incubated with sGC in microtiter plates, and the amount of the cGMP formed was then determined.
The test solutions (100 μl per well) contained 50 mM triethanolamine “TEA” buffer (pH 7.5), 3 mM MgCl2, 3 mM reduced glutathione “GSH,” 0.1 mM GTP, 1 mM 3-isobutyl-1-methylxanthine “IBMX,” suitably diluted enzyme solution and the substance to be tested or, in the control experiments, the solvent. […] The DMSO concentration in the test solution was 5% (v/v). The reaction was initiated by addition of the sGC. The reaction mixture was incubated at 37° C. for 15 to 20 minutes and then stopped by ice-cooling and addition of the stop reagent (50 mM EDTA, pH 8.0). An aliquot of 50 μl was taken and used for determining the cGMP content using the acetylation protocol of the Amersham cGMP-EIA kit. The absorption of the samples was measured at 450 nm (reference wavelength 620 nm) in a microtiter plate reader. The cGMP concentration was determined using a standard curve which was obtained under the same test conditions. […] This is calculated using the formula: n-fold stimulation=[cGMP]test substance/[cGMP]control.

rat aorta rings = assay: Relaxation of rat aorta (phenylephrine-precontracted aorta rings, organ bath); set-up: species or system rat (Wistar-Kyoto); settings: concentration by which phenylephrine (1 μM) contraction is inhibited by 50% (50% relaxation)
From the text: 2. Relaxation of Rat Aorta
For this test, normotensive male Wistar-Kyoto rats were sacrificed by a blow to the neck. The abdominal cavity and the thorax were opened by a medium sternotomy. The descending aorta was subsequently removed, freed of connective tissue and divided into 8 rings of a length of approximately 4 mm. The tip of a pair of tweezers was introduced into the lumen of 4 of the 8 rings. The endothelium was removed by carefully rolling the rings over the tip of the pair of tweezers. All 8 aorta rings (4 with endothelium and 4 without endothelium) were subsequently suspended in an organ bath (Schuler-Organbad; Hugo Sachs Elektronik) at a constant temperature of 37° C. for the isometric determination of the contractile tone. For 30 minutes, the rings were calibrated at a resting tension of 1 g in carbonated (95% O2; 5% CO2) Krebs-Henseleit solution (composition: Na^+ 144.0 mM; K^+ 5.9 mM; Cl^− 126.9 mM; Ca^2+ 1.6 mM; Mg^2+ 1.2 mM; H2PO4^− 1.2 mM; SO4^2− 1.2 mM; HCO3^− 25.0 mM; D-glucose 11.1 mM) of pH 7.4. […] After a 30-minute washing period, the rings were then again precontracted by addition of phenylephrine (1 μM), and the relaxing action of the test substances of the formula I was determined by administration of cumulative doses of the latter. The data were evaluated by standard methods. […]

Structure (SMILES) | melting point [°C] | other results
O=C(O)c1ccc(-c2nn(-c3cc(C(F)(F)F)cc(C(F)(F)F)c3)c3ccccc23)o1 [Example 4, 3-(5-Carboxy-2-furyl)-1-(3,5-bis(trifluoromethyl)phenyl)indazole] | 256 to 257 | –
CCOC(=O)c1ccc(-c2nn(-c3cc(C(F)(F)F)cc(C(F)(F)F)c3)c3ccccc23)o1 [Example 5, 3-(5-Ethoxycarbonyl-2-furyl)-1-(3,5-bis(trifluoromethyl)phenyl)indazole] | 128 to 129 | –
OCc1ccc(-c2nn(-c3cc(C(F)(F)F)cc(C(F)(F)F)c3)c3ccccc23)o1 [Example 6, 3-(5-Hydroxymethyl-2-furyl)-1-(3,5-bis(trifluoromethyl)phenyl)indazole] | 136 to 138 | n-fold stimulation ([1]; concentration 10 μM): 3.3-fold
O=C(OCCO)c1ccc(-c2nn(Cc3ccccc3)c3ccccc23)o1 [Example 7, 1-Benzyl-3-(5-((2-hydroxyethoxy)carbonyl)-2-furyl)indazole] | – | n-fold stimulation ([1]; concentration 100 μM): 5.5-fold
O=C(Nc1ccccc1)c1ccc(-c2nn(Cc3ccccc3)c3ccccc23)o1 [Example 21, 1-Benzyl-3-(5-(N-phenylcarbamoyl)-2-furyl)indazole] | 138 to 143 | n-fold stimulation ([1]; concentration 100 μM): 3-fold
O=C(Nc1ccc(Cl)cc1)c1ccc(-c2nn(Cc3ccccc3)c3ccccc23)o1 [Example 22, 1-Benzyl-3-(5-(N-(4-chlorophenyl)carbamoyl)-2-furyl)indazole] | 202 to 205 | –
O=C(Nc1ccc([N+](=O)[O-])cc1)c1ccc(-c2nn(Cc3ccccc3)c3ccccc23)o1 [Example 23, 1-Benzyl-3-(5-(N-(4-nitrophenyl)carbamoyl)-2-furyl)indazole] | 204 to 208 | –
O=C(Nc1ccc2ccccc2c1)c1ccc(-c2nn(Cc3ccccc3)c3ccccc23)o1 [Example 24, 1-Benzyl-3-(5-(N-(2-naphthyl)carbamoyl)-2-furyl)indazole] | 167 | –
O=C(NOCc1ccccc1)c1ccc(-c2nn(Cc3ccccc3)c3ccccc23)o1 [Example 26, 1-Benzyl-3-(5-(N-(benzyloxy)carbamoyl)-2-furyl)indazole] | 140 to 143 | –
CN(C(=O)c1ccc(-c2nn(Cc3ccccc3)c3ccccc23)o1)c1ccccc1 [Example 27, 1-Benzyl-3-(5-(N-methyl-N-phenylcarbamoyl)-2-furyl)indazole] | 190 | –
COc1ccc(NC(=O)c2ccc(-c3nn(Cc4ccccc4)c4ccccc34)o2)cc1 [Example 28, 1-Benzyl-3-(5-(N-(4-methoxyphenyl)carbamoyl)-2-furyl)indazole] | 175 | –
O=C(Nc1ccccc1O)c1ccc(-c2nn(Cc3ccccc3)c3ccccc23)o1 [Example 29, 1-Benzyl-3-(5-(N-(2-hydroxyphenyl)carbamoyl)-2-furyl)indazole] | 196 to 197 | –
O=C(NCc1ccccc1)c1ccc(-c2nn(Cc3ccccc3)c3ccccc23)o1 [Example 34, 1-Benzyl-3-(5-(N-benzylcarbamoyl)-2-furyl)indazole] | 113 to 124 | –
CC(C)N(CCNC(=O)c1ccc(-c2nn(Cc3ccccc3)c3ccccc23)o1)C(C)C [Example 36, 1-Benzyl-3-(5-(N-(2-diisopropylaminoethyl)carbamoyl)-2-furyl)indazole] | 119 to 127 | –
O=C(NCc1ccccn1)c1ccc(-c2nn(Cc3ccccc3)c3ccccc23)o1 [Example 38, 1-Benzyl-3-(5-(N-(2-pyridylmethyl)carbamoyl)-2-furyl)indazole] | 160 | –
CNC(=O)c1ccc(-c2nn(Cc3ccccc3)c3ccccc23)o1 [Example 40, 1-Benzyl-3-(5-(N-methylcarbamoyl)-2-furyl)indazole] | – | IC50 (rat aorta rings; Ring with endothelium): 2400 nM; IC50 (rat aorta rings; Ring without endothelium): 200 nM; n-fold stimulation ([1]; concentration 100 μM): 2.4-fold
OC(c1ccccc1)c1ccc(-c2nn(Cc3ccccc3)c3ccccc23)o1 (stereo not shown) [Example 43, 1-Benzyl-3-(5-(1-hydroxy-1-phenylmethyl)-2-furyl)indazole] | 138 to 139 | –

More lines, main results first:

melting point [°C] | Structure (SMILES) | other results
167 to 168 | O=C(Nc1nccs1)c1ccc(-c2nn(Cc3ccccc3)c3ccccc23)o1 [Example 25, 1-Benzyl-3-(5-(N-(2-thiazolyl)carbamoyl)-2-furyl)indazole] | n-fold stimulation ([1]; concentration 10 μM): 2.8-fold
156 | CC(C)NC(=O)c1ccc(-c2nn(Cc3ccccc3)c3ccccc23)o1 [Example 31, 1-Benzyl-3-(5-(N-isopropylcarbamoyl)-2-furyl)indazole] | –
152 | CCCNC(=O)c1ccc(-c2nn(Cc3ccccc3)c3ccccc23)o1 [Example 32, 1-Benzyl-3-(5-(N-(n-propyl)carbamoyl)-2-furyl)indazole] | –
165 | O=C(NC1CCCCC1)c1ccc(-c2nn(Cc3ccccc3)c3ccccc23)o1 [Example 33, 1-Benzyl-3-(5-(N-cyclohexylcarbamoyl)-2-furyl)indazole] | –
130 | CN(C)CCNC(=O)c1ccc(-c2nn(Cc3ccccc3)c3ccccc23)o1 [Example 35, 1-Benzyl-3-(5-(N-(2-dimethylaminoethyl)carbamoyl)-2-furyl)indazole] | –
219 to 222 | NC(=O)CNC(=O)c1ccc(-c2nn(Cc3ccccc3)c3ccccc23)o1 [Example 37, 1-Benzyl-3-(5-(N-(carbamoylmethyl)carbamoyl)-2-furyl)indazole] | –
